Test results from PubChem BioAssay AID330 (DTP/NCI, 2004).
Values joined by “and” are separate entries in the source; they are usually repeats but may differ in a detail not shown here. Equal entries are not always repeated. Inconclusive results and toxic doses are left out. Rule for the calls: active = survival T/C of 150% or more; inactive = T/C below 125% in these data.

Tested on: P388 leukemia ip, CD2F1 mice, survival T/C
Test: NCI In Vivo Anticancer Drug Screen. Data for tumor model P388 Leukemia (intraperitoneal) in CD2F1 (CDF1) mice
Conditions: endpoint: median survival time, higher = longer survival
Method in brief: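 Mice carrying the transplanted tumor received test compound or vehicle. Survival was recorded in each group, and the value is the treated-group measurement divided by that of the vehicle-treated control group.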

[1] = dose: 50.0 mg/kg/injection, schedule: Q01DX009 (ip), vehicle: Klucel (hydroxypropylcellulose) (HPC)
[2] = dose: 100.0 mg/kg/injection, schedule: Q01DX009 (ip), vehicle: Klucel (hydroxypropylcellulose) (HPC)
[3] = dose: 200.0 mg/kg/injection, schedule: Q01DX009 (ip), vehicle: Klucel (hydroxypropylcellulose) (HPC)
[4] = dose: 50.0 mg/kg/injection, schedule: Q01DX005 (ip), vehicle: Klucel (hydroxypropylcellulose) (HPC)
[5] = dose: 100.0 mg/kg/injection, schedule: Q01DX005 (ip), vehicle: Klucel (hydroxypropylcellulose) (HPC)
[6] = dose: 200.0 mg/kg/injection, schedule: Q01DX005 (ip), vehicle: Klucel (hydroxypropylcellulose) (HPC)

Measured: T/C

O=[N+]([O-])c1nccn1CC(O)CO (centres undefined)
inactive: dose: 12.5 mg/kg/injection, schedule: Q01DX009 (ip), vehicle: saline 103 % of control and 116 % of control | dose: 25.0 mg/kg/injection, schedule: Q01DX009 (ip), vehicle: saline 101 % of control and 121 % of control | dose: 50.0 mg/kg/injection, schedule: Q01DX009 (ip), vehicle: saline 103 % of control and 116 % of control and 98 % of control | dose: 100.0 mg/kg/injection, schedule: Q01DX009 (ip), vehicle: saline 102 % of control and 106 % of control and 116 % of control | dose: 200.0 mg/kg/injection, schedule: Q01DX009 (ip), vehicle: saline 104 % of control and 107 % of control and 121 % of control | dose: 360.0 mg/kg/injection, schedule: Q01DX001 (ip), vehicle: saline 101 % of control and 102 % of control | dose: 400.0 mg/kg/injection, schedule: Q01DX009 (ip), vehicle: saline 102 % of control and 106 % of control | dose: 600.0 mg/kg/injection, schedule: Q01DX001 (ip), vehicle: saline 100 % of control and 102 % of control | dose: 1000.0 mg/kg/injection, schedule: Q01DX001 (ip), vehicle: saline 101 % of control and 104 % of control

Cc1ccc(NNC2=NC(=S)NC(=O)C2)cc1
inactive: dose: 50.0 mg/kg/injection, schedule: Q01DX009 (ip), vehicle: saline with Tween-80 111 % of control | dose: 100.0 mg/kg/injection, schedule: Q01DX009 (ip), vehicle: saline with Tween-80 95 % of control | dose: 200.0 mg/kg/injection, schedule: Q01DX009 (ip), vehicle: saline with Tween-80 104 % of control

CCOc1ccc(N=Nc2c(-c3ccccc3)nn(C(=S)S)c2-c2ccccc2)cc1
inactive: dose: 50.0 mg/kg/injection, schedule: Q01DX005 (ip), vehicle: saline with Tween-80 88 % of control | dose: 100.0 mg/kg/injection, schedule: Q01DX005 (ip), vehicle: saline with Tween-80 92 % of control | dose: 200.0 mg/kg/injection, schedule: Q01DX005 (ip), vehicle: saline with Tween-80 90 % of control

Cc1cc(O)c(C(=O)/C=C/c2ccnc3ccccc23)c(=O)o1
inactive: dose: 60.0 mg/kg/injection, schedule: Q01DX005 (ip), vehicle: Klucel (hydroxypropylcellulose) (HPC) 104 % of control | dose: 120.0 mg/kg/injection, schedule: Q01DX005 (ip), vehicle: Klucel (hydroxypropylcellulose) (HPC) 108 % of control

CCC1(CC)c2c(ccc(OC)c2OC)C=C2c3cc4c(cc3CCN21)OCO4
inactive: dose: 0.63 mg/kg/injection, schedule: Q01DX009 (ip), vehicle: distilled water + Tween-80 108 % of control | dose: 0.63 mg/kg/injection, schedule: Q01DX009 (ip), vehicle: water 94 % of control | dose: 1.25 mg/kg/injection, schedule: Q01DX009 (ip), vehicle: distilled water + Tween-80 108 % of control | dose: 1.25 mg/kg/injection, schedule: Q01DX009 (ip), vehicle: water 103 % of control | dose: 2.5 mg/kg/injection, schedule: Q01DX009 (ip), vehicle: distilled water + Tween-80 123 % of control | dose: 2.5 mg/kg/injection, schedule: Q01DX009 (ip), vehicle: water 112 % of control

CC1=NN=C(C)C1=Cc1ccccc1[N+](=O)[O-]
inactive: [1] 99 % of control | [2] 95 % of control | [3] 101 % of control

C=CCOc1cc2c(cc1C(CC)c1ccc(OC)cc1)OCO2 (centres undefined)
inactive: [4] 101 % of control | [5] 103 % of control | [6] 104 % of control

NNc1nnnn1-c1ccccc1
inactive: dose: 50.0 mg/kg/injection, schedule: Q01DX001 (ip), vehicle: Klucel (hydroxypropylcellulose) (HPC) 100 % of control | dose: 100.0 mg/kg/injection, schedule: Q01DX001 (ip), vehicle: Klucel (hydroxypropylcellulose) (HPC) 104 % of control | dose: 200.0 mg/kg/injection, schedule: Q01DX001 (ip), vehicle: Klucel (hydroxypropylcellulose) (HPC) 102 % of control

Cc1ccc(C)c2c1C(=O)c1ccccc1C2(O)C#Cc1ccccc1 (centres undefined)
inactive: [4] 101 % of control | [5] 94 % of control | [6] 94 % of control

COc1cc2c(c(O)c1OC)-c1c(cc(OC)c(OC)c1OC)CC(C)C(C)C2 (centres undefined)
inactive: dose: 11.25 mg/kg/injection, schedule: Q01DX009 (ip), vehicle: saline + alcohol 100 % of control and 95 % of control | dose: 11.3 mg/kg/injection, schedule: Q01DX009 (ip), vehicle: saline + alcohol 106 % of control | dose: 22.5 mg/kg/injection, schedule: Q01DX009 (ip), vehicle: saline + alcohol 101 % of control and 115 % of control and 96 % of control | dose: 45.0 mg/kg/injection, schedule: Q01DX009 (ip), vehicle: saline + alcohol 106 % of control and 121 % of control and 97 % of control | dose: 90.0 mg/kg/injection, schedule: Q01DX009 (ip), vehicle: saline + alcohol 113 % of control and 121 % of control and 92 % of control | dose: 180.0 mg/kg/injection, schedule: Q01DX009 (ip), vehicle: saline + alcohol 96 % of control

O=C1C=Cc2ccccc2C1=C1SCCS1
inactive: [1] 103 % of control | [2] 93 % of control | [3] 90 % of control
